# Experiments:
# [1] = biological target: P2RY5 receptor (Homo sapiens, UniProt P43657, DEL128-129/DEL256-257/Q258T); assay: Tango P2RY5 U2OS beta-lactamase reporter assay; format: cell-based
# Method: The Tango™ P2RY5 U2OS antibiotic selected pool cells were plated at 10,000 cells/well into a 384 well clear bottom assay plate in Freestyle™ media. FBS (Fetal Bovine 20%) or a PMA concentration dilution series (in Freestyle™ media) was then added to the plate at the indicated concentrations. The plate was placed at 37° C. 5% CO2 for 24 hours for receptor stimulation followed by betalactamase substrate loading for 2 hours. (The P2RY5 cells were also tested with a 48 hour stimulation time with equivalent results.)
# (§1) The antibiotic selected Tango™ P2RY5 U2OS cells were cultured to 80-90% confluence in tissueculture flasks. The growth media was then removed and replaced with Freestyle™ media either with (stimulated) or without (un-stimulated) 20% FBS. The cultures were then placed at 37° C. 5% CO2 for 48 hours for receptor stimulation followed by beta-lactamase substrate loading for 2 hours. Responsive cells were then sorted by FACS into a single pool and three 96 well plates of clones.
# The Tango™ P2RY5 U2OS cells were plated at 10,000 cells/well into a 384 well clear bottom assay plate in Freestyle™ media. FBS was then added to half the wells in the assay to a concentration of 20% (stimulated) while the other half of the assay received an equal volume of Freestyle™ Media (un-stimulated). The plate was placed at 37° C. 5% CO2 for 48 hours for receptor stimulation followed by betalactamase substrate loading for 2 hours.
# as §1, with “selected FACS sorted responsive cell” for “selected”, “U2OS Pool was” for “U2OS cells were”, “in two tissue culture” for “in tissueculture”, “a green cell pool from the un-stimulated cell sample, and into a blue cell” for “a single”, “of clones from the FBS stimulated sample.” for “of clones.”
# The Tango™ P2RY5 U2OS sorted pool cells were plated at 10,000 cells/well into a 384 well clear bottom assay plate in FreeStyle™ media. The dFBS was immediately added to plate to final concentration of 20% by volume (stimulated). An equal volume of Free Style™ media was added to the un-stimulated wells. The plate was placed at 37° C. 5% CO2 for 48 hrs for receptor stimulation followed by beta-lactamase substrate loading for 2 hours.
# The Tango™ P2RY5 U2OS sorted pool cells were plated at 10,000 cells/well into a 384 well clear bottom assay plate in FreeStyle™ media. The plate was placed at 37° C. […]
# [2] = tested on: Tango™ P2RY5 U2OS Clone 10F cells; assay: Cell death at high PMA concentrations in the Tango P2RY5 assay; format: cell-based
# Method: The Tango™ P2RY5 U2OS Clone 10F cells were plated at 10,000 cells/well into a 384 well clear bottom assay plate in 32 μl/well Freestyle™ medium. 4 μl/well 10× DMSO in Freestyle™ medium was then added to the wells of the assay plate to bring the final DMSO concentration in the wells to 0% (no DMSO), 0.1%, 0.5% or 1.0% DMSO. 4 μl/well PMA (10× in Freestyle™ medium) was immediately added to the plate to the indicated concentrations. The plate was placed at 37° C./5% CO2 for 18 hours for receptor stimulation followed by beta-lactamase substrate loading for 2 hours.
# The Tango™ P2RY5 U2OS Clone 10F cells were plated at 10,000 cells/well into two 384 well clear bottom assay plate in 32 μl/well Freestyle™ medium. One plate was placed at 37° C./5% CO2 for 18 hours prior to PMA stimulation for 5 hours while PMA was immediately added to the other plate for an 18 hours stimulation. At the time of stimulation 4 μl/well of a 10× stock of DMSO in Freestyle™ medium was added to the wells of the assay plate to bring the final DMSO concentration in the wells to 0.1% DMSO. 4 μl/well PMA (10× in Freestyle™ medium) was then added to the plate to the indicated concentrations. The plates were placed at 37° C./5% CO2 for 5 or 18 hours for receptor stimulation followed by beta-lactamase substrate loading for 2 h.
# Tango™ P2RY5 U2OS clone 10F cells were cryopreserved at 2.5×10̂6 cells/ml in Recovery™ freezing medium in liquid nitrogen for several days. The cells were thawed into Freestyle™ assay medium prior to use in the assay. The Tango™ P2RY5 U2OS Clone 10F cells were plated at 10,000 cells/well into two 384 well clear bottom assay plate in 32 μl/well Freestyle™ medium. One plate was placed at 37° C./5% CO2 for 18 hours prior to PMA stimulation for 5 hours while PMA was immediately added to the other plate for an 18 hour stimulation. At the time of stimulation 4 μl/well of a 10× stock of DMSO in Freestyle™ medium was added to the wells of the assay plate to bring the final DMSO concentration in the wells to 0.1% DMSO. […]
# Sequence of P2RY5 receptor (P43657 with tags, fused parts or gaps DEL128-129/DEL256-257/Q258T): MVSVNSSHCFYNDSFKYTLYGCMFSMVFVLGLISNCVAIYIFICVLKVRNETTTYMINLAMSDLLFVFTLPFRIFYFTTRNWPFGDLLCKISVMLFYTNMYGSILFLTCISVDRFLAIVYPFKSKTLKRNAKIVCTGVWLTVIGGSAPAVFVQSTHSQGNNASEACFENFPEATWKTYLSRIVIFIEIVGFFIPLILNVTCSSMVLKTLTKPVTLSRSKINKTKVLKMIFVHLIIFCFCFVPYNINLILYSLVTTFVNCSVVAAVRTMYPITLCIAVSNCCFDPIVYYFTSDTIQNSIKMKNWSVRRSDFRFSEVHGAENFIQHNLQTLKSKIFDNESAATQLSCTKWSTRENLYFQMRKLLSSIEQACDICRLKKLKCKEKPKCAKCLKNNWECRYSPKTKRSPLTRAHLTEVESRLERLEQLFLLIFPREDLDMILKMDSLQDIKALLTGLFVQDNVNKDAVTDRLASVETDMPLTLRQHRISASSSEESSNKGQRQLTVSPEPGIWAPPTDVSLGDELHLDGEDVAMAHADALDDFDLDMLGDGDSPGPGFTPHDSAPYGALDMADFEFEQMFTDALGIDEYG
smiles,measurement,setting,value
CCCCCCCCCCCCCC(=O)O[C@@H]1[C@@H](C)[C@@]2(O)[C@@H](C=C(CO)C[C@]3(O)C(=O)C(C)=C[C@@H]23)[C@@H]2C(C)(C)[C@]12OC(C)=O [PMA],"assay window, 5 hour vs 18 hour stimulation time","[1]; Clone 10F, 5 hour stimulation, 0.1% DMSO",larger assay window than the 18 hour stimulation time
same,"response to PMA, cryopreserved vs dividing cells","[1]; Clone 10F, cryopreserved cells, 5 or 18 hours stimulation",slightly less potent response
same,beta-lactamase response through the P2RY5 receptor,"[1]; Green sort pool, 5 hours stimulation",slight inducible beta-lactamase response
same,beta-lactamase response through the P2RY5 receptor,"[1]; sorted clones, 18 hours stimulation",concentration dependant beta-lactamase response
same,PMA concentrations with cell death in the wells,"[2]; cryopreserved cells, 18 hours stimulation",greater than 100 nM
same,PMA concentrations with cell death in the wells,"[2]; dividing cells, 5 hour stimulation",> 1 µM
same,PMA concentrations with cell death in the wells,"[2]; dividing cells, 18 hour stimulation",greater than 100 nM
